Assay results published in patent US20110020460A1, “GPR 119 MODULATORS” (Pfizer Inc., priority 2009, published 2011).
Values joined by “and” are separate entries in the source; they are usually repeats but may differ in a detail not shown here. Equal values may be shown once. Read-outs that look alike come from different tables or passages of the source.

How the values were obtained:
human GPR119 [1] = target: T1, human GPR119 (Homo sapiens, UniProt Q8TDV5); test: GPR119 radioligand binding assay ([3H]-Compound A or [3H]-Compound B, HEK 293FT membranes); conditions: Ki from IC50 by Cheng-Prusoff, one value per run
T1 construct: host or cells: HEK293-CRE-beta-lactamase
T1 sequence (Q8TDV5 1-335): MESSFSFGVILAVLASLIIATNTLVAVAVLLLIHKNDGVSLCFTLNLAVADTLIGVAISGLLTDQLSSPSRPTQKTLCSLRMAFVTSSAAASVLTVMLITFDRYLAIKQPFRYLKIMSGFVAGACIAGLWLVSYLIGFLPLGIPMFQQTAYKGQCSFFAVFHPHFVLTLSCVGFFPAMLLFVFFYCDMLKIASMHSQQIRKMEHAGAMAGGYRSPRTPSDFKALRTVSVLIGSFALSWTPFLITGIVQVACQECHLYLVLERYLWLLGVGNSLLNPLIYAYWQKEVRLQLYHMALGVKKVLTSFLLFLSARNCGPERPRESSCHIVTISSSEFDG
Description: Cells were harvested via centrifugation (3,000×g, 10 minutes), washed once on DPBS (minus Ca++/Mg++), resuspended in 0.25M sucrose, 25 mM HEPES, 0.5 mM EDTA, pH 7.4 and frozen at −80 degrees Celsius.
The frozen cells were thawed on ice and centrifuged at 700×g (1400 rpm) for 10 minutes at 4 degrees Celsius. The cell pellet was resuspended in 20 mL phosphate-buffered saline, and centrifuged at 1400 rpm for 10 minutes. […] Cells were then lysed with 15 gentle strokes of a tight-fitting glass Dounce homogenizer. The homogenate was centrifuged at 1000×g (2200 rpm) for 10 minutes at 4 degrees Celsius. The supernatant was transferred into fresh centrifuge tubes on ice. The cell pellet was resuspended in homogenization buffer, and centrifuged again at 1000×g (2200 rpm) for 10 minutes at 4 degrees Celsius after which the supernatant was removed and the pellet resuspended in homogenization buffer. […] The solution was then centrifuged at 25,000×g (15000 rpm) for 20 minutes at 4 degrees Celsius, the supernatant was discarded, and the pellet was resuspended in fresh homogenization buffer (minus Benzonase and MgCl2). After repeating the 25,000×g centrifugation step, the final membrane pellet was resuspended in homogenization buffer and frozen at −80 degrees Celsius.
2 microL of each dilution was added to appropriate wells of a 96-well plate (each concentration in triplicate).
Membranes expressing GPR119 were thawed and diluted to a final concentration of 20 μg/100 microL per well in Binding Buffer, and 100 microL of diluted membranes were added to each well of 96-well plate.
The plate was incubated for 60 minutes w/shaking at room temperature (approximately 25 degrees Celsius). […] Filters were then washed six times using washing buffer (50 mM Tris-HCl, pH 7.5 kept at 4 degrees Celsius). The filter plates were then air-dyed at room temperature overnight.
IC50 determinations were made from competition curves, analyzed with a proprietary curve fitting program (SIGHTS) and a 4-parameter logistic dose response equation. Ki values were calculated from IC50 values, using the Cheng-Prusoff equation.

human GPR119 [2] = target: T1, human GPR119; test: beta-lactamase reporter functional assay (hGPR119 HEK293-CRE beta-lactamase cells); type: cell-based; conditions: one value per run; for EC50: hGPR119 HEK293-CRE beta-lactamase cells, read-out: Human B-lactamase Functional EC50; for Intrinsic Activity* (B-lactamase) / Emax: percent of maximal activity relative to standard GPR119 agonist (WO2005121121) at 10 microM; for Emax: read-out: Intrinsic Activity* (B-lactamase)
Description: The assay for GPR119 agonists utilizes a cell-based (hGPR119 HEK293-CRE beta-lactamase) reporter construct where agonist activation of human GPR119 is coupled to beta-lactamase production via a cyclic AMP response element (CRE). GPR119 activity is then measured utilizing a FRET-enabled beta-lactamase substrate, CCF4-AM (Live Blazer FRET-B/G Loading kit, Invitrogen cat #K1027). […] After 4 hours the plating medium was removed and replaced with 40 microL of assay medium (Assay medium is plating medium without potassium clavulanate and HIFBS). Varying concentrations of each compound to be tested was then added in a volume of 10 microL (final DMSO≦0.5%) and the cells were incubated for 16 hours at 37 degrees Celsius in a humidified environment containing 5% carbon dioxide. Plates were removed from the incubator and allowed to equilibrate to room temperature for approximately 15 minutes. 10 microL of 6×CCF4/AM working dye solution (prepared according to instructions in the Live Blazer FRET-B/G Loading kit, Invitrogen cat #K1027) was added per well and incubated at room temperature for 2 hours in the dark. Fluorescence was measured on an EnVision fluorimetric plate reader, excitation 405 nm, emission 460 nm/535 nm. EC50 determinations were made from agonist-response curves analyzed with a curve fitting program using a 4-parameter logistic dose-response equation.

human GPR119 [3] = target: T1, human GPR119; test: cAMP HTRF functional assay (hGPR119 HEK-CRE beta-lactamase cells); type: cell-based; conditions: for Emax: read-out: Intrinsic Activity* (cAMP)
Description: GPR119 agonist activity was also determined with a cell-based assay utilizing an HTRF (Homogeneous Time-Resolved Fluorescence) cAMP detection kit (cAMP dynamic 2 Assay Kit; Cis Bio cat #62AM4PEC) that measures cAMP levels in the cell. The method is a competitive immunoassay between native cAMP produced by the cells and the cAMP labeled with the dye d2. The tracer binding is visualized by a Mab anti-cAMP labeled with Cryptate. The specific signal (i.e. energy transfer) is inversely proportional to the concentration of cAMP in either standard or sample.
Following 30 minutes incubation at room temperature, 5 microL of labeled d2 cAMP and 5 microL of anti-cAMP antibody (both diluted 1:20 in cell lysis buffer; as described in the manufacturers assay protocol) were added to each well of the assay plate. […] Raw data were converted to nM cAMP by interpolation from a cAMP standard curve (as described in the manufacturer's assay protocol) and EC50 determinations were made from an agonist-response curves analyzed with a curve fitting program using a 4-parameter logistic dose response equation.

[4] = hGPR119 HEK-CRE beta-lactamase cells, HTRF cAMP, one value per run
[5] = percent of maximal activity relative to standard GPR119 agonist (WO2005121121) at 10 μM, one value per run
[6] = **curve was extrapolated to 100% to calculate an EC50

Row | Ki (human GPR119 [1]; read-out: Human Binding Ki) | EC50 (human GPR119 [2]) | Intrinsic Activity* (B-lactamase) (human GPR119 [2]) | Emax (human GPR119 [2]) [%] | EC50 (human GPR119 [3]; [4]) | Intrinsic Activity* (cAMP) (human GPR119 [3]; [5]) | Emax (human GPR119 [3]; [5]) [%] | EC50 (human GPR119 [3]; [6]) | Emax (human GPR119 [3]; [6]) [%] | SMILES | Ki (human GPR119 [1]; Human Binding Ki)
1 | 47 nM and 45 nM | 68 nM and 122 nM | 101% | 100 | 217 nM and 180 nM | 37% | 56 | – | – | CC(C)OC(=O)N1CCC(n2ncc(COc3ccc(S(=O)(=O)CCO)cc3F)c2C#N)CC1 [Example 1, Isopropyl 4-[5-cyano-4-({2-fluoro-4-[(2-hydroxyethyl)sulfonyl]-phenoxy}methyl)-1H-pyrazol-1-yl]piperidine-1-carboxylate] | –
2 | 10 nM and 19 nM and 13 nM and 40 nM | 9 nM and 17 nM | 93% and 84% | 100 | 29 nM and 27 nM | 63% | 60 | – | – | CC(C)OC(=O)N1CCC(n2ncc(COc3ccc(S(C)(=O)=O)cc3F)c2C#N)CC1 [Example 2, Isopropyl 4-(5-cyano-4-{[2-fluoro-4-(methylsulfonyl)phenoxy]methyl}-1H-pyrazol-1-yl)piperidine-1-carboxylate] | –
3 | 5 nM | 15 nM and 16 nM | 95% | 97 | 10 nM and 9 nM | 60% | 80 | – | – | CC(C)OC(=O)N1CCC(n2ncc(COc3ccc(-n4cnnn4)cc3)c2C#N)CC1 [Example 4, Isopropyl 4-(5-cyano-4-{[4-(1H-tetrazol-1-yl)phenoxy]methyl}-1H-pyrazol-1-yl)piperidine-1-carboxylate] | –
4 | 939 nM and 1710 nM | 250 nM and 227 nM and 395 nM | 88% and 104% | 100 | 442 nM and 650 nM | 34% | 39 | – | – | Cc1ncccc1OCc1cnn(C2CCN(C(=O)OC(C)C)CC2)c1C#N [Example 5, Isopropyl 4-(5-cyano-4-{[(2-methylpyridin-3-yl)oxy]methyl}-1H-pyrazol-1-yl)piperidine-1-carboxylate] | –
5 | > 6100 nM | 6 nM | – | 31 | > 10000 nM | – | 17 | – | – | Cc1ncccc1NCc1cnn(C2CCN(C(=O)OC(C)C)CC2)c1C#N [Example 6, Isopropyl 4-(5-cyano-4-{[(2-methylpyridin-3-yl)amino]methyl}-1H-pyrazol-1-yl)piperidine-1-carboxylate] | –
6 | 35 nM and 42 nM | 56 nM and 89 nM | 93% | 98 | – | – | – | – | – | CC(C)OC(=O)N1CCC(n2ncc(CCc3ccc(S(C)(=O)=O)cc3F)c2C#N)CC1 [Example 9, Isopropyl 4-(5-cyano-4-{2-[2-fluoro-4-(methylsulfonyl)phenyl]ethyl}-1H-pyrazol-1-yl)piperidine-1-carboxylate] | –
7 | 28 nM and 30 nM | 34 nM and 38 nM | 94% | 100 | 87 nM and 98 nM | 57% | 62 | – | – | CC(C)OC(=O)N1CCC(n2ncc(CNc3ccc(S(C)(=O)=O)cc3F)c2C#N)CC1 [Example 10, Isopropyl 4-[5-cyano-4-({[2-fluoro-4-(methylsulfonyl)phenyl]amino}methyl)-1H-pyrazol-1-yl]piperidine-1-carboxylate] | –
8 | 530 nM | 782 nM | – | 98 | 163 nM and 98 nM and 154 nM | 74% and 62% | 61 | – | – | CC(C)OC(=O)N1CCC(n2ncc(COc3ccc(F)cc3F)c2C#N)CC1 [Example 11, Isopropyl 4-{5-cyano-4-[(2,4-difluorophenoxy)methyl]-1H-pyrazol-1-yl}piperidine-1-carboxylate] | –
9 | 153 nM | – | – | – | 67 nM and 69 nM | 75% | 80 | – | – | CC(C)OC(=O)N1CCC(n2ncc(COc3ccc(-n4cccn4)cc3)c2C#N)CC1 [Example 18, Isopropyl 4-(4-((4-(1H-pyrazol-1-yl)phenoxy)methyl)-5-cyano-1H-pyrazol-1-yl)piperidine-1-carboxylate] | –
10 | 159 nM | – | – | – | 147 nM and 161 nM | – | 29 | – | – | CC(C)OC(=O)N1CCC(n2ncc(COc3ccc(-c4nnn(CCO)n4)cc3F)c2C#N)CC1 [Example 22, Isopropyl 4-(5-cyano-4-((2-fluoro-4-(2-(2-hydroxyethyl)-2H-tetrazol-5-yl)phenoxy)methyl)-1H-pyrazol-1-yl)piperidine-1-carboxylate] | –
11 | 150 nM | – | – | – | – | – | – | 1640 nM and 1470 nM | 100 | CC(C)OC(=O)N1CCC(n2ncc(COc3ccc(-c4nnnn4CCO)cc3F)c2C#N)CC1 [Example 23, Isopropyl 4-(5-cyano-4-((2-fluoro-4-(1-(2-hydroxyethyl)-1H-tetrazol-5-yl)phenoxy)methyl)-1H-pyrazol-1-yl)piperidine-1-carboxylate] | –
12 | 418 nM | – | – | – | 57 nM and 111 nM | 88% and 114% | – | – | – | Cn1nnnc1-c1ccc(OCc2cnn(C3CCN(C(=O)OC4(C)CC4)CC3)c2C#N)cc1 [Example 25, 1-Methylcyclopropyl 4-(5-cyano-4-{[4-(1-methyl-1H-tetrazol-5-yl)phenoxy]methyl}-1H-pyrazol-1-yl)piperidine-1-carboxylate] | –
13 | – | – | – | – | 254 nM | – | 62 | – | – | CC1(OC(=O)N2CCC(n3ncc(COc4ccc(C(N)=O)c(F)c4)c3C#N)CC2)CC1 [Example 26, 1-Methylcyclopropyl 4-(4-((4-carbamoyl-3-fluorophenoxy)methyl)-5-cyano-1H-pyrazol-1-yl)piperidine-1-carboxylate] | –

Row | SMILES | Ki (human GPR119 [1]; read-out: Human Binding Ki) | EC50 (human GPR119 [2]) | Intrinsic Activity* (B-lactamase) (human GPR119 [2]) | Emax (human GPR119 [2]) [%] | EC50 (human GPR119 [3]; [4]) | Intrinsic Activity* (cAMP) (human GPR119 [3]; [5]) | Emax (human GPR119 [3]; [5]) [%] | EC50 (human GPR119 [3]; [6]) | Emax (human GPR119 [3]; [6]) [%] | Ki (human GPR119 [1]; Human Binding Ki)
14 | COP(=O)(OC)c1ccc(OCc2cnn(C3CCN(C(=O)OC(C)C)CC3)c2C#N)c(F)c1 [Example 7, Isopropyl 4-(5-cyano-4-{[4-(dimethoxyphosphoryl)-2-fluorophenoxy]methyl}-1H-pyrazol-1-yl)piperidine-1-carboxylate] | – | 622 nM | – | 98 | 225 nM and 256 nM and 169 nM | 74% and 85% | 80 | – | – | 293 nM and 283 nM
